Measurements from patent US12070505B2, “Targeted peptide-drug conjugates” (priority 2021, dated 2024).

What was measured:
MDA-MB-231 cells = test: MTS cytotoxicity assay of [(WR)8WKβA]-Dox, MDA-MB-231; settings: 5 μM
Method: Cytotoxic activity of the synthesized conjugate and noncovalent mixtures of cyclic [WR]9+Dox was determined in SK-OV-3, MDA-MB-231, MCF-7, MES-SA/MX2, and H9C2 cells. […] An appropriate growth medium was used for each cell line (for SK-OV-3: McCoy's […] with L-glutamine containing fetal bovine serum (FBS) (10%) and penicillin or streptomycin (1%); for MDA-MB-231 and MCF-7 cells: DMEM/F12 (1:1) (1×) with L-Glutamine and 15 mM HEPES containing FBS (10%) and penicillin or streptomycin (1%), and for MES-SA/MX2 and H9C2 cells: Minimum Essential Medium Eagle with Earle's salts and sodium bicarbonate, without L-glutamine containing FBS (10%), and penicillin or streptomycin (1%)). The cells were seeded in a complete growth medium 24 h prior to the experiment. […] The incubation was continued for 3 h.

H9C2 cells [1] = test: Fluorescence/confocal microscopy uptake in heart cells (Example 1); format: cell-based, rat; settings: 5 μM
Method: Fluorescence and Confocal Microscopy. CCRF-CEM, SKOV-3, and H9C2 cells were seeded with EMEM media overnight on coverslips in six-well plates. Then the medium was removed and washed with opti-MEM. The cells were treated with Dox and the peptide-Dox conjugate (5 μM) in opti-MEM for different time intervals (3, 24, and 72 h) at 37° C. After 3 h incubation, the media containing the compound were removed, followed by washing with PBS three times. Then coverslips were placed on a drop of mounting medium on a microscope slide with the cell-attached side facing down. Fluorescence microscopy and laser scanning confocal microscopy were carried out using a Keyence Microscope System and Nikon AIR system, respectively. The cells were imaged using rhodamine and phase contrast channels.
In a separate experiment, confocal microscopy was used as follows. (i) Internalization of [R5K]W7A-Dox conjugate vs. free Dox was determined in Dox-resistant MDA-MB-231 and ME5-SA/MX2 cells as compared to the wild-type MDA-MB-231 cells. The cellular internalization was evaluated in Dox-sensitive and -resistant cells to study the effect of overexpression of the MDR efflux proteins on the Dox internalization by the peptide conjugates. […] (ii) Internalization of Dox and [R5K]W7A-Dox was determined into normal heart muscle cells. […]

MES-SA/MX2 cells = test: LC50 by CCK-8 assay, Dox-resistant MES-SA/MX2; format: cell-based; settings: FIG. 10: after 72 h
Method: Dox-resistant Cell Lines. Acquired resistance to Dox was induced in wild-type triple-negative breast cancer cell line MDA-MB-231 (MDA-231WT) as described before (Aliabadi, H. M.; et al. J. Control. Release 172:219-228, 2013, which is incorporated herein by reference). Briefly, MDA-231WT cells were exposed to Dox at an initial concentration of 0.05 μg/mL for one week or three consecutive expansions (whichever came later). […] Resistance induction was confirmed via calculation of LC50 following a sigmoidal effect model explained elsewhere (Bousoik, E.; et al. Front. Oncol. 9:1070, 2019, which is incorporated herein by reference) and determination of P-glycoprotein (P-gp) expression.
The cytotoxicity of the peptide-Dox conjugate in resistant triple-negative breast cancer and uterine sarcoma cell lines (MDA-231R, MDA-231WT, and MES-SA/MX2) was evaluated by a Cell Counting 8 (CCK8) KIT. The peptide-Dox conjugate was added to the cells in triplicate with different concentrations (0-40 μM). […] After this incubation period, 10 μL of CCK8 reagent was added to each well, and plates were incubated at the same conditions for 2 h. The absorbance of each well was determined at 450 nm using the SpectraMAX M5 microplate reader. […]
Efficiency in Dox-Resistant Cells. […] The cell viability was determined after this incubation period using the CCK-8 assay, as explained above. […]

H9C2 cells [2] = test: Cytotoxicity, MTS assay, normal heart muscle cells (Example 1); settings: 5 μM
Method: In Vitro Cytotoxicity Assay of Peptide-Drug Conjugates. The cytotoxicity of the compounds was determined by using human leukemia cell line (CCRF-CEM), human ovarian adenocarcinoma cells (SKOV-3) cells, kidney cell line (LLC-PK1), gastric adenocarcinoma cells (AGS), and heart/myocardium cells (H9C2) to evaluate the toxicity of the generated peptides according to a previously reported procedure (Rahman, A.; et al. Proc. Am. Assoc. Cancer Res. 26:2295-2299, 1985, which is incorporated herein by reference). In brief, CCRF-CEM cells were seeded at 50,000 cells in 0.1 mL per well in 98-well plates. In the case of other cell lines, the cells were seeded at 5,000 cells (0.1 mL per well in 96-well plates). The cells were seeded in medium (RPMI-1640 containing FBS (10%)), 24 h prior to the experiment. The compounds at different concentrations (10-50 μM) were added to each well in triplicate and incubated for 24 and 72 h at 37° C. in a humidified atmosphere of 5% CO2. Dox (5 μM) was used as a positive control, while water and cell culture medium were used as negative controls. The compounds were dissolved in water; water was used as a negative control to normalize the data. After the incubation period, MTS reagent (20 μL) was added to each well. The incubation was continued for 2 h. Cell viability was then determined by determination of the fluorescence intensity at 490 nm using a SpectraMax M2 microplate spectrophotometer.

In the case of `COc1cccc2c1C(=O)c1c(O)c3c(c(O)c1C2=O)C[C@@](O)(C(=O)CO)C[C@@H]3O[C@H]1C[C@H](N)[C@H](O)[C@H](C)O1` [Dox, doxorubicin, reference compound], the cell viability (MDA-MB-231 cells; 24 h) is reported as 79%, the cell viability (MDA-MB-231 cells; 72 h) is reported as 37% and the “inhibition of cell viability/proliferation” value (MDA-MB-231 cells; 72 h) is reported as 63%. For the same compound, the “uptake in heart cells (microscopy, words)” value (H9C2 cells [1]) was “significant uptake”, the CC50 (MES-SA/MX2 cells) was 41 µM and the “reduction of cell survival” value (H9C2 cells [2]; H9C2, 24 h) was 20%. For the same compound, the “reduction of cell survival” value (H9C2 cells [2]; H9C2, 72 h) was 44%, the “reduction of cell survival” value (H9C2 cells [2]; H9C2, 96 h) was 44% and the “reduction of viability of heart cells” value (H9C2 cells [2]; H9C2, time not stated) was 44%. For the same compound, the “Cell Viability (%) after 24 h” value (H9C2 cells [2]; normal heart H9C2) was 80 ± 2%, the “Cell Viability (%) after 72 h” value (H9C2 cells [2]; normal heart H9C2) was 56 ± 3% and the “Cell Viability (%) after 96 h” value (H9C2 cells [2]; normal heart H9C2) was 56 ± 1%.
